From BindingDB's records for doi:10.1038/nchembio.614 (National Cancer Institute-Frederick, 2011) come the findings set out here.

Numbered stars: 1 amine (or outer) side, 2 acyl side, 3 side chain; on linkers, the order of the positions; unused ones are H or OH. Square brackets hold non-standard residues; d marks the D form. Peptide text beside a SMILES is read from it. ξ: configuration not given here. X3 = C[C@@H](OP(=O)(O)OCC[C@@H](O)CO)[C@H](N[*:1])C(=O)[*:2]; X20 = O=C([C@H](Cc1cncn1CC[C@@H](O)CO)N[*:1])[*:2]; X13 = COP(=O)(O)O[C@H](C)[C@H](N[*:1])C(=O)[*:2]; pT = C[C@@H](OP(=O)(O)O)[C@H](N)C(=O)O; ξP = O=C(O)C1CCCN1 A value given as a limit tells only on which side of the number the result lay.

Chain of Serine/threonine-protein kinase PLK1 (P53350 whole entry): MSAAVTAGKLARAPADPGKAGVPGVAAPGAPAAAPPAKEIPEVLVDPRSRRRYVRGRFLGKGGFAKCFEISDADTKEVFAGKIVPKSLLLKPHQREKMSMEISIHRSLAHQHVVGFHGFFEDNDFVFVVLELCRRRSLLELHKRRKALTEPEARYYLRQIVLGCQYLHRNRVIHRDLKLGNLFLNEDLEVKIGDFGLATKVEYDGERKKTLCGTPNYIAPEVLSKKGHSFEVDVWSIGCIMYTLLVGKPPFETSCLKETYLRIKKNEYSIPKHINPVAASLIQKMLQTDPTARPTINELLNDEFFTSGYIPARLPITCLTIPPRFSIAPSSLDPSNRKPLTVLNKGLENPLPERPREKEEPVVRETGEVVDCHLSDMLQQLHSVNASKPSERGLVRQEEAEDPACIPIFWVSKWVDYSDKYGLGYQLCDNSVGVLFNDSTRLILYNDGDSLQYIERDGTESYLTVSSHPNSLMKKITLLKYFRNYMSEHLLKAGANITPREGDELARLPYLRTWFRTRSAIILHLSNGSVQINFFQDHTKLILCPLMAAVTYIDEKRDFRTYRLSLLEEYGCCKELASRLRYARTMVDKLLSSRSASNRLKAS

The assay concerns the target Serine/threonine-protein kinase PLK1 (Homo sapiens, UniProt P53350). Nature of the assay: Inhibition Assay. The settings on record: pH 8; 25 °C. The source says:
The evaluation of Plk1 PBD binding affinities of the synthetic compounds using an ELISA-based 96-well assay.
Consider `COP(=O)(O)O[C@H](C)[C@H](NC(=O)[C@H](CO)NC(=O)[C@H](Cc1cnc[nH]1)NC(=O)[C@H](CC(C)C)NC(=O)C1CCCN1C(C)=O)C(N)=O` (stereo partly drawn) [Phosphodiester analog, 3a] (Ac-[ξP]LHS[X13]-NH2), for which the IC50 was more than 200 µM.
The value for `CC(=O)N1CCCC1C(=O)N[C@@H](CC(C)C)C(=O)N[C@@H](Cc1cncn1CC[C@@H](O)CO)C(=O)N[C@@H](CO)C(=O)N[C@H](C(N)=O)[C@@H](C)OP(=O)(O)O` (stereo partly drawn) [Phosphodiester analog, 4b] (Ac-[ξP]L[X20]S[pT]-NH2) was more than 200 µM; that for `CC(=O)N1CCCC1C(=O)N[C@@H](CC(C)C)C(=O)N[C@@H](Cc1cnc[nH]1)C(=O)N[C@@H](CO)C(=O)N[C@H](C(N)=O)[C@@H](C)OP(=O)(O)OCC[C@@H](O)CO` (stereo partly drawn) [Phosphodiester analog, 3b] (Ac-[ξP]LHS[X3]-NH2) was more than 200 µM.

The term IC50 denotes the midpoint of a concentration-inhibition curve. Low values mean inhibition by little substance, high ones a need for much substance.
